Laboratory results reported in US8686075B2, “Polysulfone compositions and methods for the manufacture and use thereof” (SABIC Innovative Plastics IP B.V., priority 2011, dated 2014).

Columns and labels:
[1] = target: recombinant human estradiol receptors (rhER) beta 1 (β1) (Homo sapiens, UniProt Q92731); assay: competitive binding assay, displacement of [3H] estradiol radioligand from rhER beta 1; settings: tested up to 2.5×E-4 M
[2] = target: T1, recombinant human estradiol receptors (rhER) alpha (α) (Homo sapiens, UniProt P03372); assay: competitive binding assay, displacement of [3H] estradiol radioligand from rhER alpha; settings: text statements, tested up to 2.5×E-4 M
T1 sequence (P03372 1-595): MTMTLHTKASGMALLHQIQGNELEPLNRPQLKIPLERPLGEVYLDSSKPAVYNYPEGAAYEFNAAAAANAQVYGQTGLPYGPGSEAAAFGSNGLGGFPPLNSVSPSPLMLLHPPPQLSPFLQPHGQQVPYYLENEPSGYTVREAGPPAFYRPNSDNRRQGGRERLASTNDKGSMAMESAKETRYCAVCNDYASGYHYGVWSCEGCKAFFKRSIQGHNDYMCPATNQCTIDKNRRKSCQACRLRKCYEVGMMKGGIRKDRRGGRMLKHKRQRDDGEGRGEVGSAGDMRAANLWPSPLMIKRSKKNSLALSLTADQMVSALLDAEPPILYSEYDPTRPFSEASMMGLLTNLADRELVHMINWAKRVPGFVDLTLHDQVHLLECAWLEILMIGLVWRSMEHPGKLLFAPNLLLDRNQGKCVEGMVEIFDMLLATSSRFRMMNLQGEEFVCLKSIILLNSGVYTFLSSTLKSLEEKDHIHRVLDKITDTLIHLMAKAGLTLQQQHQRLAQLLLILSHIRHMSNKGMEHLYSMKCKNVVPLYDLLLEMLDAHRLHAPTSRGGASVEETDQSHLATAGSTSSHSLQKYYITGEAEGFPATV

## CC(C)(c1ccccc1)c1ccc(O)cc1 [B, p-Cumyl Phenol, reference compound]
[1]; text statements
  estradiol binding / displacement at the beta estradiol receptor (in words): displace estradiol at low concentrations
[2]
  estradiol binding / displacement at the alpha estradiol receptor (in words): displace estradiol at low concentrations

## O=C1c2ccccc2C(c2ccc(O)cc2)(c2ccc(O)cc2)N1c1ccccc1 [Example 3, N-Phenyl Phenolphthalein Bisphenol]
[1]; text statements
  estradiol binding / displacement at the beta estradiol receptor (in words): no detectible estradiol displacement
[1]; text statements, listed as N-phenyl phenolphthalein bisphenol
  estradiol binding / displacement at the beta estradiol receptor (in words): no estradiol binding
[2]
  estradiol binding / displacement at the alpha estradiol receptor (in words): no detectible estradiol displacement
[2]; listed as N-phenyl phenolphthalein bisphenol
  estradiol binding / displacement at the alpha estradiol receptor (in words): no estradiol binding

## Oc1cccc(O)c1 [Example 4, Resorcinol]
[1]; text statements
  estradiol binding / displacement at the beta estradiol receptor (in words): no detectible estradiol displacement
[1]; text statements, listed as resorcinol
  estradiol binding / displacement at the beta estradiol receptor (in words): no estradiol binding
[2]
  estradiol binding / displacement at the alpha estradiol receptor (in words): no detectible estradiol displacement
[2]; listed as resorcinol
  estradiol binding / displacement at the alpha estradiol receptor (in words): no estradiol binding

## Cc1cc(O)ccc1O [Example 8, Methyl Hydroquinone]
[1]; text statements
  estradiol binding / displacement at the beta estradiol receptor (in words): no alpha or beta estradiol displacement
[1]; text statements, listed as methyl hydroquinone
  estradiol binding / displacement at the beta estradiol receptor (in words): no estradiol binding

## Cc1cc(C2(c3ccc(O)c(C)c3)CCCCC2)ccc1O [G, Dimethyl Cyclohexyl Bisphenol, reference compound]
[1]; text statements
  estradiol binding / displacement at the beta estradiol receptor (in words): displace estradiol at low concentrations
[2]
  estradiol binding / displacement at the alpha estradiol receptor (in words): displace estradiol at low concentrations

## CC(C)(c1ccc(O)cc1)c1cccc(C(C)(C)c2ccc(O)cc2)c1 [K, Bisphenol M, reference compound]
[1]; text statements
  estradiol binding / displacement at the beta estradiol receptor (in words): displace estradiol at low concentrations
[2]
  estradiol binding / displacement at the alpha estradiol receptor (in words): displace estradiol at low concentrations

## O=C1OC(c2ccc(O)cc2)(c2ccc(O)cc2)c2ccccc21 [O, Phenolphthalein, reference compound]
[1]; text statements
  estradiol binding / displacement at the beta estradiol receptor (in words): estradiol displacement at low concentration

## Biphenol [Example 6]
[1]; text statements
  estradiol binding / displacement at the beta estradiol receptor (in words): no estradiol binding
[2]
  estradiol binding / displacement at the alpha estradiol receptor (in words): no displacement of the estradiol
[2]; listed as biphenol
  estradiol binding / displacement at the alpha estradiol receptor (in words): no estradiol binding

## Bis Hydroxy Phenyl Menthane [reference compound]
[1]; text statements
  estradiol binding / displacement at the beta estradiol receptor (in words): displace estradiol at low concentrations
[2]
  estradiol binding / displacement at the alpha estradiol receptor (in words): displace estradiol at low concentrations

## Bisphenol Acetophenone [D, reference compound]
[2]
  estradiol binding / displacement at the alpha estradiol receptor (in words): displace estradiol at low concentrations

## Dihydroxy Diphenyl Ether [Example C, reference compound]
[1]; text statements
  estradiol binding / displacement at the beta estradiol receptor (in words): displace estradiol at low concentrations

## Diphenolic Acid Methyl Ester [F, reference compound]
[1]; text statements
  estradiol binding / displacement at the beta estradiol receptor (in words): displace estradiol at low concentrations
[2]
  estradiol binding / displacement at the alpha estradiol receptor (in words): displace estradiol at low concentrations

## Fluorenone Bis-o-Cresol [reference compound]
[1]; text statements
  estradiol binding / displacement at the beta estradiol receptor (in words): displace estradiol at low concentrations

## Tetra Methyl BPA [Example 1]
[1]; listed as tetra methyl bisphenol-A
  estradiol binding / displacement at the beta estradiol receptor (in words): no estradiol binding
[1]; text statements
  estradiol binding / displacement at the beta estradiol receptor (in words): no detectible estradiol displacement
